The values that follow come from PubChem BioAssay AID1996.

≈ marks a conversion by molar mass, not a printed value.

For this data set the following is noted: buffer; pH 7.4; 200.0 µM.
Compound `O=C(NCN1CCN(c2ccccc2)CC1)c1cnccn1` registered a solubility (kinetic) of over 44.6 µg/mL.

`COC(=O)Nc1nc2ccc(C(=O)c3cccs3)cc2[nH]1` gave a solubility (kinetic) of 0.3 µg/mL (≈ 0.996 µM).

`Cc1nc2ccc(NC(=O)CSc3ccccc3)cc2s1` registered a kinetic solubility of 46 µg/mL (≈ 146 µM).

On to `O=C(COc1ccccc1)Nc1ccc2oc(=O)ccc2c1`, for which the solubility (kinetic) is 9.8 µg/mL (≈ 33.2 µM).

In turn, `O=C(CCC(=O)Nc1ccccc1)N/N=C/c1ccncc1` registered a kinetic solubility of over 44.4 µg/mL.

`O=C(O)Cc1sc(NCc2ccco2)nc1-c1ccccc1` showed a kinetic solubility of 46.8 µg/mL (≈ 149 µM).

As to `CC(=O)Nc1ccc(NC(=O)COC(=O)C2CCC(C(C)(C)C)CC2)cc1` (centres undefined), the solubility (kinetic) came out at 3.7 µg/mL (≈ 9.88 µM).

`Cc1c(C(=O)NC2=NCCS2)cccc1[N+](=O)[O-]` returned a kinetic solubility of 37.5 µg/mL (≈ 141 µM). Compared with the last compound, the solubility kinetic is about 10-fold higher.

For `COc1ccc(S(=O)(=O)Nc2ccccc2C(N)=O)cc1OC`, the solubility (kinetic) is 47.5 µg/mL (≈ 141 µM).

Compound `COc1ccc(CC(=O)NC(C)c2ccc3ccccc3c2)cc1` (centres undefined) had a solubility (kinetic) of 0.7 µg/mL (≈ 2.19 µM).

`COC(=O)c1ccc(NC(=O)c2ccc3c(c2)C(=O)N(C)C3=O)cc1`: the solubility (kinetic) was under 0.4 µg/mL.

In the case of `Cc1cccc(N=C2NC(=O)/C(=C/c3cccn3C)S2)c1C`, the solubility (kinetic) was found to be 8.2 µg/mL (≈ 26.3 µM).

In the case of `COc1ccc(C(=O)NCCc2cn3ccccc3n2)cc1`, the solubility (kinetic) was 42.9 µg/mL (≈ 145 µM).

As to `O=C(COC(=O)CC1CCCC1)Nc1ccc(Br)cc1F`, the solubility (kinetic) is 19.2 µg/mL (≈ 53.6 µM). This solubility kinetic lies about 2.2-fold lower than the previous one.

Compound `Cl.NCCC(=O)N1c2ccccc2Sc2ccc(Cl)cc21` returned a kinetic solubility of 33.7 µg/mL.

In the case of `CCOC(=O)NC(=O)CSc1ccc(C)cc1C`, the solubility (kinetic) is over 40.1 µg/mL.

`CCc1ccc(S(=O)(=O)Nc2ccc(Cl)cn2)cc1` registered a kinetic solubility of 8.3 µg/mL (≈ 28 µM).

As for `CCN(C(=O)c1ccco1)C1C2CC3CC(C2)CC1C3` (centres undefined), the kinetic solubility was found to be 26.1 µg/mL (≈ 95.5 µM).

`COc1cc(S(=O)(=O)N2CCN(C(=O)C3CC3)CC2)ccc1NC(C)=O` showed a solubility (kinetic) of over 57.2 µg/mL.

On to `COc1cc2c(cc1OC)C(NC(=O)C(F)(F)F)C/C2=N\O` (centres undefined), for which the solubility (kinetic) was over 47.7 µg/mL.

With `S=c1[nH]c2ccccc2n1Cc1ccccc1`, the kinetic solubility stood at 4.8 µg/mL (≈ 20 µM).

In turn, `CC1CC2(C)CC(C)C1(COC(=O)Nc1ccccc1)CO2` (centres undefined) registered a solubility (kinetic) of 44.6 µg/mL (≈ 147 µM).

Compound `Nc1ccc(Cl)c(S(=O)(=O)Nc2cccc(Cl)c2)c1` came in with a solubility (kinetic) of 43.4 µg/mL (≈ 137 µM).

Compound `CCOc1cc(C(=O)NC(C)CCc2ccccc2)cc(OCC)c1OCC` (centres undefined) returned a solubility (kinetic) of 0.8 µg/mL (≈ 2.08 µM).

`CC(NC(=O)CC1CCCCC1)c1ccccc1` (centres undefined) yielded a solubility (kinetic) of over 36.8 µg/mL.

Compound `CCC(=O)NCc1c(C)c(C)n(Cc2ccccc2)c1-n1cccc1` showed a kinetic solubility of 4.6 µg/mL (≈ 13.7 µM).

For `Nc1ccc(CCNc2ncnc3c2ncn3[C@@H]2O[C@H](CO)[C@@H](O)[C@H]2O)cc1`, the kinetic solubility is over 58 µg/mL.

Turning to `NC1=NC(=O)C(Cc2ccc(Br)cc2)S1` (centres undefined), the solubility (kinetic) came to 36.5 µg/mL (≈ 128 µM).

`COC(=O)c1sccc1NC(=O)Nc1cccc(C)c1C` showed a kinetic solubility of 8.1 µg/mL (≈ 26.6 µM).

Compound `CCOC(=O)CNC(=O)CSc1nc(-c2ccc(OC)cc2)ns1` returned a kinetic solubility of 2.8 µg/mL (≈ 7.62 µM). Compared with the last compound, the solubility kinetic is about 2.9-fold lower.

For the compound `Cc1cc(OCC(=O)N(C)C2CCCCC2)ccc1Cl`, the solubility (kinetic) was determined as 35.5 µg/mL (≈ 120 µM).

On to `O=C(NCCCN1CCCC1=O)c1cc2ccccc2o1`, for which the solubility (kinetic) is over 42.9 µg/mL.

`Cc1nc(C)c(C(=O)OC(C)C(=O)Nc2ccc(F)cc2)s1` (centres undefined) returned a solubility (kinetic) of over 48.4 µg/mL.

`Cc1ccc(C(=O)Nc2nc3ccccc3[nH]2)cc1` displayed a solubility (kinetic) of 2.4 µg/mL (≈ 9.55 µM).

Regarding `CC1=C([N+](=O)[O-])C(c2ccc(O)c(O)c2)NC(=O)N1` (centres undefined), the solubility (kinetic) is over 39.8 µg/mL.

`CN(CC(=O)N1CCCCC1)S(=O)(=O)c1ccc(Cl)cc1` displayed a kinetic solubility of 47.5 µg/mL (≈ 144 µM).

Take `COc1cc(/C=C/C(=O)Nc2ccc(OC)c(S(=O)(=O)N3CCOCC3)c2)ccc1OCC#N`: the kinetic solubility came out at 7.1 µg/mL (≈ 14.6 µM).

The compound `COc1ccc(N/C=C/C(=O)c2ccccc2)cc1` gave a kinetic solubility of under 0.5 µg/mL.

The compound `Cc1cc([N+](=O)[O-])ccc1NC(=O)CCC(=O)N1CCCC1` yielded a solubility (kinetic) of over 45.8 µg/mL.

Regarding `COc1cc([N+](=O)[O-])ccc1NC(=O)/C=C\C(=O)O`, the solubility (kinetic) is over 39.9 µg/mL.

In turn, `Cc1nc2cc(NC(=O)NCCCO)ccc2o1` gave a kinetic solubility of over 37.4 µg/mL.

For the compound `Cc1ccc(NC(=O)C2Cc3ccccc3O/C2=N\O)cc1C` (centres undefined), the solubility (kinetic) stood at 3.8 µg/mL (≈ 12.2 µM).

For the compound `CC(C)NC(=O)[C@@H]1CSC2c3ccccc3C(=O)N21` (some centres undefined), the kinetic solubility is over 41.5 µg/mL.

In turn, `Cc1cccc(Nc2nc(N)c([N+](=O)[O-])c(NCCO)n2)c1` returned a solubility (kinetic) of 19.8 µg/mL (≈ 65.1 µM).

As for `CC(=O)c1c(C)[nH]c(C(=O)COC(=O)c2c(C)noc2C)c1C`, the kinetic solubility is 5.4 µg/mL (≈ 17 µM).

With `COC(=O)c1cccc(N2CCCC2=O)c1`, the kinetic solubility is over 32.9 µg/mL.

Compound `CCN(CC)C(=O)Oc1ccc(NC(=O)N2CCOCC2)cc1` showed a solubility (kinetic) of over 48.2 µg/mL.

Compound `CCC(=NCc1cccnc1)c1c(O)n(-c2ccccc2C)c(=O)[nH]c1=O` came in with a solubility (kinetic) of over 54.7 µg/mL.

The compound `COc1cc([N+](=O)[O-])ccc1NC(=O)/C=C/C(=O)O` yielded a solubility (kinetic) of over 39.9 µg/mL.

Consider `O=C(NCCCCc1ccccc1)Nc1ccc(F)cc1F`, for which the kinetic solubility was 0.3 µg/mL (≈ 0.986 µM).

In turn, `COC(=O)C1(C(=O)O)Cc2cc([N+](=O)[O-])ccc2N2CCCC21` (centres undefined) came in with a kinetic solubility of 47.9 µg/mL (≈ 150 µM).

Compound `CC1=CC(C)(C)N2C(=O)C(=Nc3ccc(O)cc3)c3cccc1c32` came in with a solubility (kinetic) of 9.4 µg/mL (≈ 29.5 µM).

For `O=[N+]([O-])c1cc(S(=O)(=O)NCCN2CCOCC2)ccc1Cl`, the solubility (kinetic) was over 52.5 µg/mL.

`Nc1ccccc1SCCS(=O)(=O)c1ccc(Cl)cc1`: the kinetic solubility amounted to 2.2 µg/mL (≈ 6.71 µM).

As to `CCOC(=O)c1cc2c(ccn2C)n1Cc1ccc(C#N)cc1`, the solubility (kinetic) worked out at 2.3 µg/mL (≈ 7.48 µM).

In turn, `O=C(O)c1nn(-c2ccc(F)cc2)ccc1=O` registered a solubility (kinetic) of over 35.1 µg/mL.

`O=C(Cc1cccc2ccccc12)Nc1ccc(N2CCOCC2)cc1` had a solubility (kinetic) of 1.7 µg/mL (≈ 4.91 µM).

On to `Cc1oc(-c2cccc(Br)c2)[n+]([O-])c1C`, for which the kinetic solubility was over 40.2 µg/mL.

Regarding `CNC(=O)c1c(NC(=O)c2ccco2)sc2c1CCC2`, the solubility (kinetic) came out at 3.3 µg/mL (≈ 11.4 µM).

`O=C(Nc1cccnc1Cl)c1cc(-c2ccc(O)cc2)on1` yielded a kinetic solubility of under 0.2 µg/mL.

The compound `O=C(NCc1ccc(Cl)cc1)[C@@H]1CCCN1S(=O)(=O)c1ccc(Cl)cc1` yielded a solubility (kinetic) of 31.3 µg/mL (≈ 75.7 µM).

The compound `O=C(NC1CC2CCCC(C1)N2C(=O)Nc1ccccc1)C1CC1` (centres undefined) came in with a solubility (kinetic) of 4.2 µg/mL (≈ 12.8 µM).

Take `Cc1cccnc1N1C(=O)c2ccc(C(=O)O)cc2C1=O`: the solubility (kinetic) was over 42.3 µg/mL.

In turn, `O=C(c1ccccc1F)N1CCN(c2ccccn2)CC1` had a solubility (kinetic) of over 42.8 µg/mL.

`C=CCNC(=S)Nc1nc2c(cc1C(=O)OCC)COC(C)(C)C2`: the solubility (kinetic) is 3.1 µg/mL (≈ 8.87 µM).

Compound `COc1ccc(C)cc1N(CC(=O)N1CCCCCC1)S(C)(=O)=O` returned a solubility (kinetic) of 38.1 µg/mL (≈ 107 µM).

In the case of `N#CCCN1CCN(S(=O)(=O)c2ccc3c(c2)CCC3)CC1`, the solubility (kinetic) was over 47.9 µg/mL.

`N#Cc1ccc(NC(=O)c2cc(=O)c3ccccc3o2)cc1`: the solubility (kinetic) came out at 0.8 µg/mL (≈ 2.76 µM).

In turn, `NC(=S)C1COc2ccccc2O1` (centres undefined) gave a kinetic solubility of over 29.3 µg/mL.

Compound `CC(NC(=O)CN1CCN(c2cccc(Cl)c2)CC1)c1ccccc1` (centres undefined) displayed a kinetic solubility of 42.4 µg/mL (≈ 118 µM).

The compound `Cc1ccc2cc(NC(=O)c3cccc(F)c3)ccc2n1` had a kinetic solubility of 28.6 µg/mL (≈ 102 µM).

Compound `O=[N+]([O-])c1ccc(CN2CCN(c3ncccn3)CC2)cc1` came in with a kinetic solubility of 10.1 µg/mL (≈ 33.7 µM).

As to `Cc1cc(NC(=O)COC(=O)c2ccccc2Cl)no1`, the solubility (kinetic) was found to be 16.3 µg/mL (≈ 55.3 µM). This solubility kinetic is about 1.6-fold higher than that of the compound before.

Take `CCc1ccccc1NC(=O)C1CCN(C(=O)c2cccs2)CC1`: the kinetic solubility was over 51.4 µg/mL.

As a reminder, the kinetic solubility is solubility judged after dilution from a stock solution rather than from solid.
